Experimental data taken from patent publication US10687525B2, “Enhancement of cell cryopreservation with glycolipids” (TISSUE TESTING TECHNOLOGIES LLC, priority 2016, dated 2020).

Test system: keratinocytes
Test: Cell viability of keratinocytes after cryopreservation in 10% DMSO in RPMI (alamarBlue)
Format: cell-based
Conditions: keratinocytes cryopreserved in vials or culture plates in 10% DMSO in RPMI
Protocol: In the results discussed below, measurement of Cell Viability and Proliferation in FIGS. 1-4 employed AlamarBlue™ by measuring the oxidation/reduction reactions that take place within cells. AlamarBlue™ was added directly to the plates containing cultured cells in culture medium and incubated for 3 hours at 37° C. Upon reduction, AlamarBlue™ changes color and this color change can be measured and quantified. The culture plates were read using a Gemini EM fluorescent microplate reader ([…]) at an excitation wavelength of 544 nm and an emission wavelength of 590 nm. […] Keratinocytes were cryopreserved in vials or in culture plates in 10% DMSO in RPMI. Metabolic activity was measured immediately after thawing and for several days post thaw. Cell viability (in percent of untreated controls) was calculated as the mean (±SEM) of 120 replicates.

C[S+](C)[O-] [DMSO, dimethyl sulfoxide]
cell yields after cryopreservation (cell viability in percent of untreated controls): below 50%
